Source: patent US20230085307A1, “PYRIDAZINONE COMPOUND AND HERBICIDE” (NISSAN CHEMICAL CORPORATION, priority 2019, published 2023)

Assays:
lambsquarters [1] = assay: Test Example 5: herbicidal effect by foliage application, plastic box (Table 20, symbol O); type: in vivo, lambsquarters (Chenopodium album)
In short: (§1)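 Plants sown in sterilized diluvial soil and grown 14 days in a greenhouse at 25° C to 30° C, then sprayed on the foliage with the compound's emulsion diluted in water to a predetermined herbicide amount. Injury to weeds and crops scored three weeks after application on a visual rating scale.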

blackgrass [2] = assay: Test Example 4: herbicidal effect by soil treatment (Table 19, symbol J); type: in vivo, blackgrass (Alopecurus myosuroides)
In short: (§2)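 Three weeks of greenhouse growth at 25° C. to 30° C. followed a uniform surface spray of water-diluted emulsion at a predetermined herbicide amount. Seeds had been sown beforehand under about 1.5 cm of sterilized diluvial soil. Grading followed criteria set out in an earlier test.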

windgrass [3] = assay: Test Example 4: herbicidal effect by soil treatment (Table 19, symbol L); type: in vivo, windgrass (Apera spica-venti)
In short: as §2

Italian ryegrass [4] = assay: Test Example 4: herbicidal effect by soil treatment (Table 19, symbol K); type: in vivo, Italian ryegrass (Lolium multiflorum)
In short: as §2

velvetleaf [5] = assay: Test Example 4: herbicidal effect by soil treatment (Table 19, symbol M); type: in vivo, velvetleaf (Abutilon theophrasti)
In short: as §2

persian speedwell [6] = assay: Test Example 5: herbicidal effect by foliage application, plastic box (Table 20, symbol R); type: in vivo, Persian speedwell (Veronica persica)
In short: as §1

blackgrass [7] = assay: Test Example 5: herbicidal effect by foliage application, plastic box (Table 20, symbol J); type: in vivo, blackgrass (Alopecurus myosuroides)
In short: as §1

windgrass [8] = assay: Test Example 5: herbicidal effect by foliage application, plastic box (Table 20, symbol L); type: in vivo, windgrass (Apera spica-venti)
In short: as §1

southern crabgrass [9] = assay: Test Example 5: herbicidal effect by foliage application, plastic box (Table 20, symbol F); type: in vivo, southern crabgrass (Digitaria ciliaris)
In short: as §1

barnyard grass [10] = assay: Test Example 5: herbicidal effect by foliage application, plastic box (Table 20, symbol H); type: in vivo, barnyard grass (Echinochloa crus-galli)
In short: as §1

southern crabgrass [11] = assay: Test Example 4: herbicidal effect by soil treatment (Table 19, symbol F); type: in vivo, southern crabgrass (Digitaria ciliaris)
In short: as §2

velvetleaf [12] = assay: Test Example 5: herbicidal effect by foliage application, plastic box (Table 20, symbol M); type: in vivo, velvetleaf (Abutilon theophrasti)
In short: as §1

rice flat sedge = assay: Test Example 3: herbicidal effect by foliage application, Wagner pot (Table 18, symbol E); type: in vivo, rice flat sedge (Cyperus iria)
In short: (§3)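 Plants were sown in alluvial soil held under 0.1–0.5 cm standing water and grown 14 days in a greenhouse at 25–30 °C. An emulsifiable formulation, water-diluted to the set dose, was then sprayed onto the foliage, and effects were scored three weeks later using previously defined criteria.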

redroot pigweed [13] = assay: Test Example 4: herbicidal effect by soil treatment (Table 19, symbol N); type: in vivo, redroot pigweed (Amaranthus retroflexus)
In short: as §2

persian speedwell [14] = assay: Test Example 4: herbicidal effect by soil treatment (Table 19, symbol R); type: in vivo, Persian speedwell (Veronica persica)
In short: as §2

barnyard grass [15] = assay: Test Example 4: herbicidal effect by soil treatment (Table 19, symbol H); type: in vivo, barnyard grass (Echinochloa crus-galli)
In short: as §2

Chinese sprangletop = assay: Test Example 3: herbicidal effect by foliage application, Wagner pot (Table 18, symbol D); type: in vivo, chinese sprangletop (Leptochloa chinensis)
In short: as §3

green foxtail [16] = assay: Test Example 5: herbicidal effect by foliage application, plastic box (Table 20, symbol G); type: in vivo, green foxtail (Setaria viridis)
In short: as §1

chickweed [17] = assay: Test Example 4: herbicidal effect by soil treatment (Table 19, symbol P); type: in vivo, common chickweed (Stellaria media)
In short: as §2

wild oat [18] = assay: Test Example 5: herbicidal effect by foliage application, plastic box (Table 20, symbol I); type: in vivo, wild oat (Avena fatua)
In short: as §1

Italian ryegrass [19] = assay: Test Example 5: herbicidal effect by foliage application, plastic box (Table 20, symbol K); type: in vivo, Italian ryegrass (Lolium multiflorum)
In short: as §1

green foxtail [20] = assay: Test Example 4: herbicidal effect by soil treatment (Table 19, symbol G); type: in vivo, green foxtail (Setaria viridis)
In short: as §2

barnyard grass [21] = assay: Test Example 3: herbicidal effect by foliage application, Wagner pot (Table 18, symbol H); type: in vivo, barnyard grass (Echinochloa crus-galli)
In short: as §3

false cleavers = assay: Test Example 5: herbicidal effect by foliage application, plastic box (Table 20, symbol Q); type: in vivo, false cleavers (Galium spurium)
In short: as §1

wild oat [22] = assay: Test Example 4: herbicidal effect by soil treatment (Table 19, symbol I); type: in vivo, wild oat (Avena fatua)
In short: as §2

lambsquarters [23] = assay: Test Example 4: herbicidal effect by soil treatment (Table 19, symbol O); type: in vivo, lambsquarters (Chenopodium album)
In short: as §2

redroot pigweed [24] = assay: Test Example 5: herbicidal effect by foliage application, plastic box (Table 20, symbol N); type: in vivo, redroot pigweed (Amaranthus retroflexus); settings: 320 g/ha, foliage application after 14-day growth, evaluated three weeks after application
In short: as §1

chickweed [25] = assay: Test Example 5: herbicidal effect by foliage application, plastic box (Table 20, symbol P); type: in vivo, common chickweed (Stellaria media); settings: 320 g/ha, foliage application after 14-day growth, evaluated three weeks after application
In short: as §1

[26] = foliage application, 294 g/ha, 3 weeks after application
[27] = 320 g/ha, foliage application after 14-day growth, evaluated three weeks after application
[28] = foliage application, 194 g/ha, three weeks after application
[29] = amount of applied herbicide 194 g/ha

## COc1ccccc1-c1sc2ccc(F)cc2c1-c1c(O)c(C)nn(C)c1=O [2-024]
Lambsquarters [1]; [26]
  effect on lambsquarters (O): 5 (Herbicidal rate of 90% or more (almost completely withered))
Blackgrass [2]; 294 g/ha
  herbicidal effect rating, J: blackgrass: 2 (Herbicidal rate of 20% or more and less than 40%)
Windgrass [3]; 294 g/ha
  herbicidal effect rating, L: windgrass: 0 (Herbicidal rate of 5% or less (almost no effect))
Italian ryegrass [4]; 294 g/ha
  herbicidal effect rating, K: Italian ryegrass: 0 (Herbicidal rate of 5% or less (almost no effect))
Velvetleaf [5]; 294 g/ha
  herbicidal effect rating, M: velvetleaf: 2 (Herbicidal rate of 20% or more and less than 40%)
Persian speedwell [6]; [26]
  effect on persian speedwell (R): 5 (Herbicidal rate of 90% or more (almost completely withered))
Blackgrass [7]; [26]
  effect on blackgrass (J): 5 (Herbicidal rate of 90% or more (almost completely withered))
Windgrass [8]; [26]
  effect on windgrass (L): 4 (Herbicidal rate of 70% or more and less than 90%)
Southern crabgrass [9]; [26]
  effect on southern crabgrass (F): 3 (Herbicidal rate of 40% or more and less than 70%)
Barnyard grass [10]; [26]
  effect on barnyard grass (H): 5 (Herbicidal rate of 90% or more (almost completely withered))
Southern crabgrass [11]; 294 g/ha
  herbicidal effect rating, F: southern crabgrass: 3 (Herbicidal rate of 40% or more and less than 70%)
Velvetleaf [12]; [26]
  effect on velvetleaf (M): 5 (Herbicidal rate of 90% or more (almost completely withered))
Rice flat sedge; 294 g/ha
  herbicidal effect on E (rice flat sedge), rating 0-5: 4 (Herbicidal rate of 70% or more and less than 90%)
Redroot pigweed [13]; 294 g/ha
  herbicidal effect rating, N: redroot pigweed: 5 (Herbicidal rate of 90% or more (almost completely withered))
Persian speedwell [14]; 294 g/ha
  herbicidal effect rating, R: persian speedwell: 4 (Herbicidal rate of 70% or more and less than 90%)
Barnyard grass [15]; 294 g/ha
  herbicidal effect rating, H: barnyard grass: 1 (Herbicidal rate of 5% or more and less than 20%)
Chinese sprangletop; 294 g/ha
  herbicidal effect on D (Chinese sprangletop), rating 0-5: 3 (Herbicidal rate of 40% or more and less than 70%)
Green foxtail [16]; [26]
  effect on green foxtail (G): 4 (Herbicidal rate of 70% or more and less than 90%)
Chickweed [17]; 294 g/ha
  herbicidal effect rating, P: chickweed: 3 (Herbicidal rate of 40% or more and less than 70%)
Wild oat [18]; [26]
  effect on wild oat (I): 4 (Herbicidal rate of 70% or more and less than 90%)
Italian ryegrass [19]; [26]
  effect on Italian ryegrass (K): 3 (Herbicidal rate of 40% or more and less than 70%)
Green foxtail [20]; 294 g/ha
  herbicidal effect rating, G: green foxtail: 3 (Herbicidal rate of 40% or more and less than 70%)
Barnyard grass [21]; 294 g/ha
  herbicidal effect on H (barnyard grass), rating 0-5: 4 (Herbicidal rate of 70% or more and less than 90%)
False cleavers; [26]
  effect on false cleavers (Q): 5 (Herbicidal rate of 90% or more (almost completely withered))
Wild oat [22]; 294 g/ha
  herbicidal effect rating, I: wild oat: 0 (Herbicidal rate of 5% or less (almost no effect))
Lambsquarters [23]; 294 g/ha
  herbicidal effect rating, O: lambsquarters: 5 (Herbicidal rate of 90% or more (almost completely withered))

## COc1ccccc1-c1sc2c(OC)cccc2c1-c1c(O)c(C)nn(C)c1=O [4-039]
Lambsquarters [1]; [27]
  herbicidal effect on O: lambsquarters (evaluation grade 0-5): 2 (Herbicidal rate of 20% or more and less than 40%)
Persian speedwell [6]; [27]
  herbicidal effect on R: persian speedwell (evaluation grade 0-5): 3 (Herbicidal rate of 40% or more and less than 70%)
Blackgrass [7]; [27]
  herbicidal effect on J: blackgrass (evaluation grade 0-5): 2 (Herbicidal rate of 20% or more and less than 40%)
Windgrass [8]; [27]
  herbicidal effect on L: windgrass (evaluation grade 0-5): 3 (Herbicidal rate of 40% or more and less than 70%)
Southern crabgrass [9]; [27]
  herbicidal effect on F: southern crabgrass (evaluation grade 0-5): 3 (Herbicidal rate of 40% or more and less than 70%)
Barnyard grass [10]; [27]
  herbicidal effect on H: barnyard grass (evaluation grade 0-5): 3 (Herbicidal rate of 40% or more and less than 70%)
Velvetleaf [12]; [27]
  herbicidal effect on M: velvetleaf (evaluation grade 0-5): 4 (Herbicidal rate of 70% or more and less than 90%)
Rice flat sedge; 320 g/ha
  herbicidal effect on rice flat sedge (E): 3 (Herbicidal rate of 40% or more and less than 70%)
Redroot pigweed [24]
  herbicidal effect on N: redroot pigweed (evaluation grade 0-5): 3 (Herbicidal rate of 40% or more and less than 70%)
Chinese sprangletop; 320 g/ha
  herbicidal effect on Chinese sprangletop (D): 3 (Herbicidal rate of 40% or more and less than 70%)
Green foxtail [16]; [27]
  herbicidal effect on G: green foxtail (evaluation grade 0-5): 4 (Herbicidal rate of 70% or more and less than 90%)
Wild oat [18]; [27]
  herbicidal effect on I: wild oat (evaluation grade 0-5): 3 (Herbicidal rate of 40% or more and less than 70%)
Italian ryegrass [19]; [27]
  herbicidal effect on K: Italian ryegrass (evaluation grade 0-5): 0 (Herbicidal rate of 5% or less (almost no effect))
Chickweed [25]
  herbicidal effect on P: chickweed (evaluation grade 0-5): 2 (Herbicidal rate of 20% or more and less than 40%)
Barnyard grass [21]; 320 g/ha
  herbicidal effect on barnyard grass (H): 4 (Herbicidal rate of 70% or more and less than 90%)
False cleavers; [27]
  herbicidal effect on Q: false cleavers (evaluation grade 0-5): 3 (Herbicidal rate of 40% or more and less than 70%)

## Cc1ccc2oc(-c3ccc(F)cc3)c(-c3c(O)c(C)nn(C)c3=O)c2c1 [9-004]
Lambsquarters [1]; [28]
  herbicidal effect on lambsquarters (O): 3 (Herbicidal rate of 40% or more and less than 70%)
Blackgrass [2]; [29]
  J: blackgrass, herbicidal effect grade: 0 (Herbicidal rate of 5% or less (almost no effect))
Windgrass [3]; [29]
  L: windgrass, herbicidal effect grade: 0 (Herbicidal rate of 5% or less (almost no effect))
Italian ryegrass [4]; [29]
  K: Italian ryegrass, herbicidal effect grade: 4 (Herbicidal rate of 70% or more and less than 90%)
Velvetleaf [5]; [29]
  M: velvetleaf, herbicidal effect grade: 0 (Herbicidal rate of 5% or less (almost no effect))
Persian speedwell [6]; [28]
  herbicidal effect on persian speedwell (R): 5 (Herbicidal rate of 90% or more (almost completely withered))
Blackgrass [7]; [28]
  herbicidal effect on blackgrass (J): 3 (Herbicidal rate of 40% or more and less than 70%)
Windgrass [8]; [28]
  herbicidal effect on windgrass (L): 0 (Herbicidal rate of 5% or less (almost no effect))
Southern crabgrass [9]; [28]
  herbicidal effect on southern crabgrass (F): 2 (Herbicidal rate of 20% or more and less than 40%)
Barnyard grass [10]; [28]
  herbicidal effect on barnyard grass (H): 3 (Herbicidal rate of 40% or more and less than 70%)
Southern crabgrass [11]; [29]
  F: southern crabgrass, herbicidal effect grade: 2 (Herbicidal rate of 20% or more and less than 40%)
Velvetleaf [12]; [28]
  herbicidal effect on velvetleaf (M): 3 (Herbicidal rate of 40% or more and less than 70%)
Redroot pigweed [13]; [29]
  N: redroot pigweed, herbicidal effect grade: 3 (Herbicidal rate of 40% or more and less than 70%)
Persian speedwell [14]; [29]
  R: persian speedwell, herbicidal effect grade: 1 (Herbicidal rate of 5% or more and less than 20%)
Barnyard grass [15]; [29]
  H: barnyard grass, herbicidal effect grade: 3 (Herbicidal rate of 40% or more and less than 70%)
Green foxtail [16]; [28]
  herbicidal effect on green foxtail (G): 3 (Herbicidal rate of 40% or more and less than 70%)
Chickweed [17]; [29]
  P: chickweed, herbicidal effect grade: 3 (Herbicidal rate of 40% or more and less than 70%)
Wild oat [18]; [28]
  herbicidal effect on wild oat (I): 0 (Herbicidal rate of 5% or less (almost no effect))
Italian ryegrass [19]; [28]
  herbicidal effect on Italian ryegrass (K): 5 (Herbicidal rate of 90% or more (almost completely withered))
Green foxtail [20]; [29]
  G: green foxtail, herbicidal effect grade: 2 (Herbicidal rate of 20% or more and less than 40%)
False cleavers; [28]
  herbicidal effect on false cleavers (Q): 4 (Herbicidal rate of 70% or more and less than 90%)
Wild oat [22]; [29]
  I: wild oat, herbicidal effect grade: 0 (Herbicidal rate of 5% or less (almost no effect))
Lambsquarters [23]; [29]
  O: lambsquarters, herbicidal effect grade: 5 (Herbicidal rate of 90% or more (almost completely withered))
